Experiments:
Digitaria ciliaris = test: Test Example 5: herbicidal effect by foliage application, plastic box (symbol F); format: in vivo; conditions: 320 g/ha, 3 weeks after application
Method in brief: (§1)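 Emulsion formulation, diluted with water to the intended rate, was applied uniformly to leaves by small sprayer. Recipients were 14-day greenhouse-grown seedlings (25° C. to 30° C.). Assessment followed at 3 weeks.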

Setaria viridis = test: Test Example 5: herbicidal effect by foliage application, plastic box (symbol G); format: in vivo; conditions: 320 g/ha, 3 weeks after application
Method in brief: as §1

[1] = tested on: Echinochloa crus-galli var. crus-galli; test: Test Example 5: herbicidal effect by foliage application, plastic box (symbol H); format: in vivo; conditions: 320 g/ha, 3 weeks after application
Method in brief: as §1

Avena fatua = test: Test Example 5: herbicidal effect by foliage application, plastic box (symbol I); format: in vivo; conditions: 320 g/ha, 3 weeks after application
Method in brief: as §1

Alopecurus myosuroides = test: Test Example 5: herbicidal effect by foliage application, plastic box (symbol J); format: in vivo; conditions: 320 g/ha, 3 weeks after application
Method in brief: as §1

Lolium multiflorum Lam. = test: Test Example 5: herbicidal effect by foliage application, plastic box (symbol K); format: in vivo; conditions: 320 g/ha, 3 weeks after application
Method in brief: as §1

Apera spica-venti = test: Test Example 5: herbicidal effect by foliage application, plastic box (symbol L); format: in vivo; conditions: 320 g/ha, 3 weeks after application
Method in brief: as §1

Abutilon theophrasti = test: Test Example 5: herbicidal effect by foliage application, plastic box (symbol M); format: in vivo; conditions: 320 g/ha, 3 weeks after application
Method in brief: as §1

Amaranthus retroflexus = test: Test Example 5: herbicidal effect by foliage application, plastic box (symbol N); format: in vivo; conditions: 320 g/ha, 3 weeks after application
Method in brief: as §1

Stellaria media = test: Test Example 5: herbicidal effect by foliage application, plastic box (symbol P); format: in vivo; conditions: 320 g/ha, 3 weeks after application
Method in brief: as §1

Veronica persica = test: Test Example 5: herbicidal effect by foliage application, plastic box (symbol R); format: in vivo; conditions: 320 g/ha, 3 weeks after application
Method in brief: as §1

corn = test: Test Example 5: effect on crop by foliage application, plastic box (symbol c); format: in vivo; conditions: 320 g/ha, 3 weeks after application
Method in brief: (§2)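 Seeds were sown in spots in sterilized diluvial soil held in a plastic box 21 cm × 13 cm × 7 cm deep, covered with about 1.5 cm of soil, and grown in a greenhouse at 25° C. to 30° C.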

soybean = test: Test Example 5: effect on crop by foliage application, plastic box (symbol d); format: in vivo; conditions: 320 g/ha, 3 weeks after application
Method in brief: as §2

rice plant = test: Test Example 5: effect on crop by foliage application, plastic box (symbol b); format: in vivo; conditions: 320 g/ha, 3 weeks after application
Method in brief: as §2

wheat = test: Test Example 5: effect on crop by foliage application, plastic box (symbol e); format: in vivo; conditions: 320 g/ha, 3 weeks after application
Method in brief: as §2

beet = test: Test Example 5: effect on crop by foliage application, plastic box (symbol f); format: in vivo; conditions: 320 g/ha, 3 weeks after application
Method in brief: as §2

rapeseed = test: Test Example 5: effect on crop by foliage application, plastic box (symbol g); format: in vivo; conditions: 320 g/ha, 3 weeks after application
Method in brief: as §2

SMILES | F: Digitaria ciliaris, herbicidal effect grade (Digitaria ciliaris) | G: Setaria viridis, herbicidal effect grade (Setaria viridis) | H: Echinochloa crus-galli var. crus-galli, herbicidal effect grade [1] | I: Avena fatua, herbicidal effect grade (Avena fatua) | J: Alopecurus myosuroides, herbicidal effect grade (Alopecurus myosuroides) | K: Lolium multiflorum Lam., herbicidal effect grade (Lolium multiflorum Lam.) | L: Apera spica-venti, herbicidal effect grade (Apera spica-venti) | M: Abutilon theophrasti, herbicidal effect grade (Abutilon theophrasti) | N: Amaranthus retroflexus, herbicidal effect grade (Amaranthus retroflexus) | P: Stellaria media, herbicidal effect grade (Stellaria media) | R: Veronica persica, herbicidal effect grade (Veronica persica) | c: corn, effect on crop grade (corn) | d: soybean, effect on crop grade (soybean) | b: directly sowed rice plant, effect on crop grade (rice plant) | e: wheat, effect on crop grade (wheat) | f: beet, effect on crop grade (beet) | g: rapeseed, effect on crop grade (rapeseed) | melting point [°C]
CON=C(C)CC1CC(O)=C(c2c(C)cc([N+](=O)[O-])cc2C)C1=O (stereo not shown) [6-032] | 4 (Herbicidal ratio of 70% or higher and lower than 90%) | 3 (Herbicidal ratio of 40% or higher and lower than 70%) | 4 (Herbicidal ratio of 70% or higher and lower than 90%) | 0 (Herbicidal ratio of 5% or lower (almost no effect)) | 0 (Herbicidal ratio of 5% or lower (almost no effect)) | 0 (Herbicidal ratio of 5% or lower (almost no effect)) | 0 (Herbicidal ratio of 5% or lower (almost no effect)) | 0 (Herbicidal ratio of 5% or lower (almost no effect)) | 0 (Herbicidal ratio of 5% or lower (almost no effect)) | 0 (Herbicidal ratio of 5% or lower (almost no effect)) | 0 (Herbicidal ratio of 5% or lower (almost no effect)) | 0 (Herbicidal ratio of 5% or lower (almost no effect)) | 0 (Herbicidal ratio of 5% or lower (almost no effect)) | 0 (Herbicidal ratio of 5% or lower (almost no effect)) | 0 (Herbicidal ratio of 5% or lower (almost no effect)) | 0 (Herbicidal ratio of 5% or lower (almost no effect)) | 0 (Herbicidal ratio of 5% or lower (almost no effect)) | 181 to 183
CON=C(C)CC1CC(OC)=C(c2c(C)cc(OCC(F)(F)F)cc2C)C1=O (stereo not shown) [6-042] | – | – | – | – | – | – | – | – | – | – | – | – | – | – | – | – | – | 117 to 119

Source: patent US11000033B2, “Ketone or oxime compound, and herbicide” (NISSAN CHEMICAL CORPORATION, priority 2014, dated 2021)
